Results: patent publication US12304932B2, “PACAP stabilized peptide” (SENJU PHARMACEUTICAL CO., LTD., priority 2017, dated 2025)
Numbered stars: 1 amine (or outer) side, 2 acyl side, 3 side chain; on linkers, the order of the positions; unused ones are H or OH. Square brackets hold non-standard residues; d marks the D form. Peptide text beside a SMILES is read from it. * marks the point of attachment. Ala(1H-tetrazol-5-yl) = N[C@@H](Cc1nnn[nH]1)C(=O)O; X1 = O=C([C@H](CCc1nnn[nH]1)N[*:1])[*:2]; Nle = CCCC[C@H](N)C(=O)O; Ms = CS(=O)(=O)*

Test: Peptide stability tests 2 and 3: Tris buffer pH 7.0, stored at 60° C., HPLC conditions 2
Format: physicochemical
Settings: Tris buffer pH 7.0, 60° C.; for survival rate after correction for water, 60° C., 1-week storage / survival rate after correction for water, 60° C., 2-week storage: 100 μM peptide; for survival rate after correction for water, 60° C., 2-week storage: 2 weeks
Description: (§1) Peptides 1, 2 and 6 to 9 synthesized in Example 2 were weighed and dissolved in Tris buffer (pH 7.0) to prepare 1.0 mM peptide solutions. The solutions were filtered with a Chromatdisk (product of Merck Millipore, Millex-GV, 0.22 μm). Each filtrate was diluted to 100 μM with Tris buffer (pH 7.0) and dispensed into a tube (Protein LoBind Tube by Eppendorf Co.). The prepared peptide solutions were incubated for 1 week or 2 weeks in a 60° C. thermostatic bath to obtain stored samples. A simultaneously prepared sample among the peptide solutions that was not stored was used as a standard sample (initial sample). The standard sample and the stored samples were stored at −30° C. until sample analysis.
Each stored sample was measured under the following HPLC analysis conditions 2, and the survival rate after correction for water for each peptide among the stored samples was calculated in the same manner as Example 3.
Column: XSelect CSH C18 by Waters Co., 5 μm, 4.6×250 mm
Guard column: XSelect CSH C18 by Waters. Co., 5 μm, 4.6×20 mm Guard Cartridge
Detection wavelength: 220 nm
Mobile phase A: 0.1% formic acid in water
Mobile phase B: 0.1% formic acid in acetonitrile
Measuring time: 20 minutes
Measuring sample injection rate: 50 μL
Column temperature: 40° C.
Mobile phase delivery: The mixing ratio of mobile phase A and mobile phase B was varied as shown in Table 5 for linear concentration gradient control.
as §1, with “Peptides 12 to 25, 27” for “Peptides 1, 2”, “and 28” for “and 6 to 9”, “for one” for “for 1”
The survival rate after correction for water for each peptide among the stored samples was calculated in the same manner as Example 4, and the results are shown in Table 7.
as §1, with “29” for “1, 2 and 6”, “34” for “9”, “for” for “for 1 week or”
The survival rate after correction for water for each peptide among the stored samples was calculated in the same manner as Example 4, and the results are shown in Table 7-2.

Row | SMILES | survival rate after correction for water, 60° C., 1-week storage | survival rate after correction for water, 60° C., 2-week storage | stability in aqueous solution, in words
1 | CC[C@H](C)[C@H](NC(=O)CNC(=O)[C@H](CC(=O)O)NC(=O)[C@H](CO)NC(=O)[C@H](Cc1cnc[nH]1)NC(C)=O)C(=O)N[C@@H](Cc1ccccc1)C(=O)N[C@H](C(=O)N[C@@H](CC(=O)O)C(=O)N[C@@H](CO)C(=O)N[C@@H](Cc1ccc(O)cc1)C(=O)N[C@@H](CO)C(=O)N[C@@H](CCCNC(=N)N)C(=O)N[C@@H](Cc1ccc(O)cc1)C(=O)N[C@@H](CCCNC(=N)N)C(=O)N[C@@H](CCCCN)C(=O)N[C@@H](CCC(N)=O)C(=O)N[C@@H](CCSC)C(=O)N[C@@H](C)C(=O)N[C@H](C(=O)N[C@@H](CCCCN)C(=O)N[C@@H](CCCCN)C(=O)N[C@@H](Cc1ccc(O)cc1)C(=O)N[C@@H](CC(C)C)C(=O)N[C@@H](C)C(=O)N[C@@H](C)C(=O)N[C@H](C(=O)N[C@@H](CC(C)C)C(N)=O)C(C)C)C(C)C)[C@@H](C)O [Peptide 2, reference compound] | 28.7% | 17.2% | only equivalent stability
2 | CCCC[C@H](NC(=O)[C@H](CCC(N)=O)NC(=O)[C@H](CCCCN)NC(=O)[C@H](CCCNC(=N)N)NC(=O)[C@H](Cc1ccc(O)cc1)NC(=O)[C@H](CCCNC(=N)N)NC(=O)[C@H](CO)NC(=O)[C@H](Cc1ccc(O)cc1)NC(=O)[C@H](CO)NC(=O)[C@H](Cc1nnn[nH]1)NC(=O)[C@@H](NC(=O)[C@H](Cc1ccccc1)NC(=O)[C@@H](NC(=O)CNC(=O)[C@H](Cc1nnn[nH]1)NC(=O)[C@H](CO)NC(=O)[C@@H](N)Cc1c[nH]cn1)[C@@H](C)CC)[C@@H](C)O)C(=O)N[C@@H](C)C(=O)N[C@H](C(=O)N[C@@H](CCCCN)C(=O)N[C@@H](CCCCN)C(=O)N[C@@H](Cc1ccc(O)cc1)C(=O)N[C@@H](CC(C)C)C(=O)N[C@@H](C)C(=O)N[C@@H](C)C(=O)N[C@H](C(=O)N[C@@H](CC(C)C)C(N)=O)C(C)C)C(C)C [Peptide 6] (H-HS[Ala(1H-tetrazol-5-yl)]GIFT[Ala(1H-tetrazol-5-yl)]SYSRYRKQ[Nle]AVKKYLAAVL-NH2) | 91.3% | 82.4% | drastically increased stability
3 | CC[C@H](C)[C@H](NC(=O)CNC(=O)[C@H](Cc1nnn[nH]1)NC(=O)[C@H](CO)NC(=O)[C@@H](N)Cc1c[nH]cn1)C(=O)N[C@@H](Cc1ccccc1)C(=O)N[C@H](C(=O)N[C@@H](Cc1nnn[nH]1)C(=O)N[C@@H](CO)C(=O)N[C@@H](Cc1ccc(O)cc1)C(=O)N[C@@H](CO)C(=O)N[C@@H](CCCNC(=N)N)C(=O)N[C@@H](Cc1ccc(O)cc1)C(=O)N[C@@H](CCCNC(=N)N)C(=O)N[C@@H](CCCCN)C(=O)N[C@@H](CCC(N)=O)C(=O)N[C@@H](CC(C)C)C(=O)N[C@@H](C)C(=O)N[C@H](C(=O)N[C@@H](CCCCN)C(=O)N[C@@H](CCCCN)C(=O)N[C@@H](Cc1ccc(O)cc1)C(=O)N[C@@H](CC(C)C)C(=O)N[C@@H](C)C(=O)N[C@@H](C)C(=O)N[C@H](C(=O)N[C@@H](CC(C)C)C(N)=O)C(C)C)C(C)C)[C@@H](C)O [Peptide 7] (H-HS[Ala(1H-tetrazol-5-yl)]GIFT[Ala(1H-tetrazol-5-yl)]SYSRYRKQLAVKKYLAAVL-NH2) | 91.7% | 84.8% | drastically increased stability
4 | CCCC[C@H](NC(=O)[C@H](CCC(N)=O)NC(=O)[C@H](CCCCN)NC(=O)[C@H](CCCNC(=N)N)NC(=O)[C@H](Cc1ccc(O)cc1)NC(=O)[C@H](CCCNC(=N)N)NC(=O)[C@H](CO)NC(=O)[C@H](Cc1ccc(O)cc1)NC(=O)[C@H](CO)NC(=O)[C@H](Cc1nnn[nH]1)NC(=O)[C@@H](NC(=O)[C@H](Cc1ccccc1)NC(=O)[C@@H](NC(=O)CNC(=O)[C@H](Cc1nnn[nH]1)NC(=O)[C@H](CO)NC(=O)[C@H](Cc1c[nH]cn1)NC(C)=O)[C@@H](C)CC)[C@@H](C)O)C(=O)N[C@@H](C)C(=O)N[C@H](C(=O)N[C@@H](CCCCN)C(=O)N[C@@H](CCCCN)C(=O)N[C@@H](Cc1ccc(O)cc1)C(=O)N[C@@H](CC(C)C)C(=O)N[C@@H](C)C(=O)N[C@@H](C)C(=O)N[C@H](C(=O)N[C@@H](CC(C)C)C(N)=O)C(C)C)C(C)C [Peptide 8] (Ac-HS[Ala(1H-tetrazol-5-yl)]GIFT[Ala(1H-tetrazol-5-yl)]SYSRYRKQ[Nle]AVKKYLAAVL-NH2) | 98.1% | 92.9% | further increased stability
5 | CC[C@H](C)[C@H](NC(=O)CNC(=O)[C@H](Cc1nnn[nH]1)NC(=O)[C@H](CO)NC(=O)[C@H](Cc1c[nH]cn1)NC(C)=O)C(=O)N[C@@H](Cc1ccccc1)C(=O)N[C@H](C(=O)N[C@@H](Cc1nnn[nH]1)C(=O)N[C@@H](CO)C(=O)N[C@@H](Cc1ccc(O)cc1)C(=O)N[C@@H](CO)C(=O)N[C@@H](CCCNC(=N)N)C(=O)N[C@@H](Cc1ccc(O)cc1)C(=O)N[C@@H](CCCNC(=N)N)C(=O)N[C@@H](CCCCN)C(=O)N[C@@H](CCC(N)=O)C(=O)N[C@@H](CC(C)C)C(=O)N[C@@H](C)C(=O)N[C@H](C(=O)N[C@@H](CCCCN)C(=O)N[C@@H](CCCCN)C(=O)N[C@@H](Cc1ccc(O)cc1)C(=O)N[C@@H](CC(C)C)C(=O)N[C@@H](C)C(=O)N[C@@H](C)C(=O)N[C@H](C(=O)N[C@@H](CC(C)C)C(N)=O)C(C)C)C(C)C)[C@@H](C)O [Peptide 9] (Ac-HS[Ala(1H-tetrazol-5-yl)]GIFT[Ala(1H-tetrazol-5-yl)]SYSRYRKQLAVKKYLAAVL-NH2) | 98.4% | 92.8% | further increased stability
6 | CC[C@H](C)[C@H](NC(=O)CNC(=O)[C@H](Cc1nnn[nH]1)NC(=O)[C@H](CO)NC(=O)[C@H](Cc1c[nH]cn1)NS(C)(=O)=O)C(=O)N[C@@H](Cc1ccccc1)C(=O)N[C@H](C(=O)N[C@@H](Cc1nnn[nH]1)C(=O)N[C@@H](CO)C(=O)N[C@@H](Cc1ccc(O)cc1)C(=O)N[C@@H](CO)C(=O)N[C@@H](CCCNC(=N)N)C(=O)N[C@@H](Cc1ccc(O)cc1)C(=O)N[C@@H](CCCNC(=N)N)C(=O)N[C@@H](CCCCN)C(=O)N[C@@H](CCC(N)=O)C(=O)N[C@@H](CC(C)C)C(=O)N[C@@H](C)C(=O)N[C@H](C(=O)N[C@@H](CCCCN)C(=O)N[C@@H](CCCCN)C(=O)N[C@@H](Cc1ccc(O)cc1)C(=O)N[C@@H](CC(C)C)C(=O)N[C@@H](C)C(=O)N[C@@H](C)C(=O)N[C@H](C(=O)N[C@@H](CC(C)C)C(N)=O)C(C)C)C(C)C)[C@@H](C)O [Peptide 12] (Ms-HS[Ala(1H-tetrazol-5-yl)]GIFT[Ala(1H-tetrazol-5-yl)]SYSRYRKQLAVKKYLAAVL-NH2) | 97.0% | 93.6% | –
7 | CC[C@H](C)[C@H](NC(=O)CNC(=O)[C@H](Cc1nnn[nH]1)NC(=O)[C@H](CO)NC(=O)[C@H](Cc1c[nH]cn1)NC(C)=O)C(=O)N[C@@H](Cc1ccccc1)C(=O)N[C@H](C(=O)N[C@@H](Cc1nnn[nH]1)C(=O)N[C@@H](CO)C(=O)N[C@@H](Cc1ccc(O)cc1)C(=O)N[C@@H](CO)C(=O)N[C@@H](CCCNC(=N)N)C(=O)N[C@@H](Cc1ccc(O)cc1)C(=O)N[C@@H](CCCNC(=N)N)C(=O)N[C@@H](CCCCN)C(=O)N[C@@H](CCc1nnn[nH]1)C(=O)N[C@@H](CC(C)C)C(=O)N[C@@H](C)C(=O)N[C@H](C(=O)N[C@@H](CCCCN)C(=O)N[C@@H](CCCCN)C(=O)N[C@@H](Cc1ccc(O)cc1)C(=O)N[C@@H](CC(C)C)C(=O)N[C@@H](C)C(=O)N[C@@H](C)C(=O)N[C@H](C(=O)N[C@@H](CC(C)C)C(N)=O)C(C)C)C(C)C)[C@@H](C)O [Peptide 13] (Ac-HS[Ala(1H-tetrazol-5-yl)]GIFT[Ala(1H-tetrazol-5-yl)]SYSRYRK[X1]LAVKKYLAAVL-NH2) | 97.4% | 95.4% | –
